The results in this text go back to patent US12186401B2, “Amide-based proteolysis modulators of B-rapidly accelerated fibrosarcoma (BRAF) and associated uses” (Ontario Institute for Cancer Research (OICR), priority 2019, dated 2025).

Read-outs that look alike come from different tables or passages of the source.

For one experiment, the target named is B-Raf (V600E) (h) (Homo sapiens, UniProt P15056, V600E). In words: Kinase inhibition assay B-Raf (V600E) (h), radiometric 33P-ATP filter assay. Format: biochemical. Conditions: read-out: IC50(nM) BRAF^V600E. Here is the method: (§1) b-Raf (V599E) (h) was incubated with 25 mM Tris/HCl pH 7.5, 0.2 mM EGTA, 10 mM DTT, 0.01% Triton X-100, 0.5 mM, sodium orthovandate, 0.5 mM […], 1% glycerol, 34 nM unactive MEK1, 69 nM unactive MAPK2, 0.5 mg/mL myelin basic protein, and 10 mM Magnesium acetate and […] (specific activity and concentration as required). The reaction was initiated by the addition of the Mg/ATP mix. After incubation for 40 minutes at room temperature, the reaction was stopped by the addition of phosphoric acid to a concentration of 0.5%. 10 μL of the reaction was then spotted onto a P30 filtermat and washed four times for 4 minutes in 0.425% phosphoric acid and once in methanol prior to drying and scintillation counting. Similar protocols were used for other kinase assays employing the kinase of interest to generate the data in Table 1.

The target of another experiment is BRAF (Homo sapiens, UniProt P15056). In words: Kinase inhibition assay BRAF (similar protocol). It is filed as biochemical. As to the method:
as §1

Experiment [1] has as its target T1, CRAF (Homo sapiens, UniProt P04049). The experiment in a line: Kinase inhibition assay CRAF (similar protocol). It is filed as biochemical. As to the method: as §1
For experiment [2], the target named is T2, ARAF (Homo sapiens, UniProt P10398).
T2 sequence (P10398 1-606): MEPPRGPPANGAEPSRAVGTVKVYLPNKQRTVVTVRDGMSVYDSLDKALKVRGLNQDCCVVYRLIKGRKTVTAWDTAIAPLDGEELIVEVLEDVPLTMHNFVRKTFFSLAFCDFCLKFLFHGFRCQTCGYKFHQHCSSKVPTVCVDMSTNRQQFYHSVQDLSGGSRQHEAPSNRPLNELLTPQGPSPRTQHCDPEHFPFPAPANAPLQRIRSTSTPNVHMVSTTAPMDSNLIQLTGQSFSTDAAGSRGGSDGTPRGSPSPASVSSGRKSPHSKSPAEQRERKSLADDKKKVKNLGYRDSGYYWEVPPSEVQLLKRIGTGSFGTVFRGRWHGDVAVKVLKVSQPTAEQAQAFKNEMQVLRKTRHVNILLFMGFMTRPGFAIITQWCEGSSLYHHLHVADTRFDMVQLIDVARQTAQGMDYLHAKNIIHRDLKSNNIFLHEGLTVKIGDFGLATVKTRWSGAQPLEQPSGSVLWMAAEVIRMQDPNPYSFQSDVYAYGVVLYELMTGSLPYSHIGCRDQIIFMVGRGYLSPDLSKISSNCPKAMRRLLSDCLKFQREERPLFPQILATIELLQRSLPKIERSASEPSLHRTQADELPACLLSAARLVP
The experiment in a line: Kinase inhibition assay ARAF (similar protocol). It is filed as biochemical. As to the method: as §1

Another experiment concerns the target T3, BRAF^V600E (Homo sapiens, UniProt P15056, V600E).
T3 construct: A375 or SK-Mel-28 cells were obtained from ATCC; host or cells: A375 or SK-Mel-28
In words: Cellular degradation assay, Western blot of BRAF^V600E. Format: cell-based. Here is the method:
(§2) Cell culture and compound treatment: A375 or SK-Mel-28 cells were obtained from ATCC and cultured in Dulbecco's Modified Eagle Media (DMEM) supplemented with 10% FBS, penicillin and streptomycin, at 37° C., 5% CO2. Cells grown in 6-well plates were treated for 24 hours with test compounds (solubilized in DMSO) or 0.1% DMSO vehicle control. Cells were harvested by first washing with 1× phosphate-buffered saline (PBS), then scrapping into 1 ml of PBS supplemented with 1 mM phenylmethylsulfonylflouride (PMSF). Cell pellets were obtained after a centrifugation at 300-350×g for 2 min, and immediately snap frozen in liquid nitrogen.
(§3) Cell lysis and Western blot analysis: Cell pellets were thawed and lysed by pipetting in lysis buffer (50 mM HEPES (pH 7.4), 150 mM NaCl, 5 mM EDTA, 0.5% NP-40, 5 mM NaF, 10% glycerol), with Roche protease inhibitor cocktail (5056489001) and phosphatase inhibitor cocktail PhosStop (4906845001) added fresh before use. The whole cell lysate was clarified by centrifugation at 15,000-20,000×g for 20 min and supernatant was collected. Total protein concentration in the clarified lysate was determination by Bradford assay (Bio-Rad), and 30-50 ug of protein was separated through SDS-PAGE, transferred onto nitrocellulose membrane and subject to standard immunoblotting protocol. Band intensities were quantified by Bio-Rad Image Lab software. Antibodies to B-Raf (sc-5284), A-Raf (sc-166771), phosphor MEK1/2, pS218/222 (sc-7995), phosphor ERK1/2 (sc-7383) were purchased from Santa Cruz; C-Raf (9422), MEK1/2 (9122), ERK1/2 (9102) from Cell Signaling; p27 (610242) from BD Biosciences. Antibody to the loading control α-tubulin was obtained from Sigma-Aldrich (6199).
On the technique in general: Immunoblotting shows a protein as a band on a membrane.

Experiment [3] relates to MEK and ERK kinase phosphorylation. The experiment in a line: Immunoblot of downstream MEK and ERK kinase phosphorylation in A375 cells. It is filed as cell-based. Particulars: A375 human melanoma cells, 24 hrs. Here is the method:
as §2
as §3, with “Antibodies to B-Raf (sc-5284), A-Raf (sc-166771), phosphor MEK1/2, pS218/222 (sc-7995), phosphor ERK1/2 (sc-7383) were purchased from Santa Cruz; C-Raf (9422), MEK1/2 (9122), ERK1/2 (9102) from Cell Signaling; p27 (610242) from BD Biosciences. Antibody to the loading control α-tubulin was obtained from Sigma-Aldrich (6199).” left out

Experiment [4] deals with T2, ARAF. In words: Cellular degradation assay, Western blot of ARAF. It is filed as cell-based. Further details: host or cells: A375. Conditions: A375 human melanoma cells, 24 hrs; negative control 100 nM, PROTAC 0 to 4000 nM. As to the method:
as §2
as §3, with “Antibodies to B-Raf (sc-5284), A-Raf (sc-166771), phosphor MEK1/2, pS218/222 (sc-7995), phosphor ERK1/2 (sc-7383) were purchased from Santa Cruz; C-Raf (9422), MEK1/2 (9122), ERK1/2 (9102) from Cell Signaling; p27 (610242) from BD Biosciences. Antibody to the loading control α-tubulin was obtained from Sigma-Aldrich (6199).” left out

Experiment [5] deals with T1, CRAF. In words: Cellular degradation assay, Western blot of CRAF. Format: cell-based. Further details: host or cells: A375. Particulars: A375 human melanoma cells, 24 hrs; negative control 100 nM, PROTAC 0 to 4000 nM. Here is the method:
as §2
as §3, with “Antibodies to B-Raf (sc-5284), A-Raf (sc-166771), phosphor MEK1/2, pS218/222 (sc-7995), phosphor ERK1/2 (sc-7383) were purchased from Santa Cruz; C-Raf (9422), MEK1/2 (9122), ERK1/2 (9102) from Cell Signaling; p27 (610242) from BD Biosciences. Antibody to the loading control α-tubulin was obtained from Sigma-Aldrich (6199).” left out

T3 sequence (P15056 whole entry V600E): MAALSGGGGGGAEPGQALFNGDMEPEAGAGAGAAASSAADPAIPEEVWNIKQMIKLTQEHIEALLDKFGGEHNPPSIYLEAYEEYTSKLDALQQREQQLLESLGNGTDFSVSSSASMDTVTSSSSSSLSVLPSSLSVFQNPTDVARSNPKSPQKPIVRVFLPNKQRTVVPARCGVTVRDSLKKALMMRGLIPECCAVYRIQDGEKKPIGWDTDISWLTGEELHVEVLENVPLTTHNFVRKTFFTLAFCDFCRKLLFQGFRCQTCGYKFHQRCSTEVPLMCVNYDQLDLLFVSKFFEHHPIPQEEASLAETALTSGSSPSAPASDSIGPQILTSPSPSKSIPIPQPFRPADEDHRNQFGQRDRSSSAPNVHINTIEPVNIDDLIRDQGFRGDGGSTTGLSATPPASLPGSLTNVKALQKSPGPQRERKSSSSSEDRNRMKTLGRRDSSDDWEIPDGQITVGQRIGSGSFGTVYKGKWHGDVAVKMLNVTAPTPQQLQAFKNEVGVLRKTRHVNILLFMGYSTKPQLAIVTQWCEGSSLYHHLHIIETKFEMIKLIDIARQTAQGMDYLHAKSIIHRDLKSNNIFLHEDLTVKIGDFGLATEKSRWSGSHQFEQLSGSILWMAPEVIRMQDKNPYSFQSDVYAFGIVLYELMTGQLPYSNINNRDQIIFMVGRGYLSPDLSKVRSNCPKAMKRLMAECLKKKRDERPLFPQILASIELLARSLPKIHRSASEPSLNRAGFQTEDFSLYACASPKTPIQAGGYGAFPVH
T1 sequence (P04049 whole entry): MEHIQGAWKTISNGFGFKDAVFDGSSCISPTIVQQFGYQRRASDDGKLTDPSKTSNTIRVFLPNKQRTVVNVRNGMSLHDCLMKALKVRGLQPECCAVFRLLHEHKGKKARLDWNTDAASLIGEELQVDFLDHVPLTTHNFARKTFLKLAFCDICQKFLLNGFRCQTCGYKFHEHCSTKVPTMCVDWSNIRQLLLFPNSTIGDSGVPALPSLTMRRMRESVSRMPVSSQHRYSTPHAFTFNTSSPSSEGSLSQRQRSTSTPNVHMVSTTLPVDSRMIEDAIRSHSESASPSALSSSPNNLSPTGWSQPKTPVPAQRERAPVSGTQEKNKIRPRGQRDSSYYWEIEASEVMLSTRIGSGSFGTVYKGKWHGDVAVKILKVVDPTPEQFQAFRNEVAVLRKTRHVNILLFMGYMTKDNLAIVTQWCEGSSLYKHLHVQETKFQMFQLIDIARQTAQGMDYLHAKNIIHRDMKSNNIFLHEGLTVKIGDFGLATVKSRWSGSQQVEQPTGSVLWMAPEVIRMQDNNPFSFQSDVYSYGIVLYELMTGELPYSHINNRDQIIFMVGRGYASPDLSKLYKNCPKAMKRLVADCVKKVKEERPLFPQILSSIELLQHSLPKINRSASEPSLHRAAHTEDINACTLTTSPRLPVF
Chain of BRAF (P15056 whole entry): as the sequence (P15056 whole entry V600E) above, with E600V counted along it
Chain of B-Raf (V600E) (h) (P15056 whole entry V600E): as the sequence (P15056 whole entry V600E) above

For orientation: IC50 means the concentration at which inhibition is half-maximal. One may read the DC50 as the concentration giving 50% degradation. As to `CCCS(=O)(=O)Nc1ccc(F)c(-n2cc(-c3cncnc3)c3nc(N(C)C4CCN(C(=O)CCOCCOCCOCCOCCNc5cccc6c5C(=O)N(C5CCC(=O)NC5=O)C6=O)CC4)ccc32)c1F` (stereo not drawn) [Entry 17, N-(3-(5-((1-(1-((2-(2,6-dioxopiperidin-3-yl)-1,3-dioxoisoindolin-4-yl)amino)-3,6,9,12-tetraoxapentadecan-15-oyl)piperidin-4-yl)(methyl)amino)-3-(pyrimidin-5-yl)-1H-pyrrolo[3,2-b]pyridin-1-yl)-2,4-difluorophenyl)propane-1-sulfonamide], the half-maximal inhibitory concentration (IC50) stood at 12 nM at B-Raf (V600E) (h); 58 nM against BRAF; 167 nM at CRAF [1]; 2220 nM at ARAF [2]; 20 nM in experiment [3] (A-375, read-out: BRAF^V600E IC50, inhibition of downstream MEK and ERK kinase phosphorylation, 0 to 4000 nM). Further, at BRAF^V600E (A375 human melanoma cells, 24 hrs, 0 to 4000 nM), the “DCmax, degradation of BRAF^V600E kinase (FIG. 3C)” value worked out at 80%. Also, the 50% degradation concentration (DC50) was 20 nM at BRAF^V600E (A375 human melanoma cells, 24 hrs, 0 to 4000 nM, read-out: DC50, degradation of BRAF^V600E kinase (FIG. 3C)) and 15 nM at BRAF^V600E (Table 1, cells treated 24 hours, Western blot, read-out: DC50(nM) BRAF^V600E). Also, on BRAF^V600E (Table 1, cells treated 24 hours, Western blot), the “DCmax(%) BRAF^V600E” value came to 82%. Besides, the “inhibition of downstream MEK and ERK kinase phosphorylation (FIG. 3C)” value in experiment [3] (negative control 100 nM, PROTAC 0 to 4000 nM) is “inhibition of downstream MEK and ERK kinase phosphorylation”. The “degradation activity on ARAF (FIG. 3C)” value on ARAF [4] is “not ARAF and CRAF”. In addition, on CRAF [5], the “degradation activity on CRAF (FIG. 3C)” value was “not ARAF and CRAF”.
